# In publication doi:10.1101/2020.08.28.272054v2 (biorxiv, 2021):
# pIC50: −log10 of the molar value.
# Assays:
# Assay in all cases: ATPase activity, photometric phosphate release, Sf9 membranes
# Type in all cases: biochemical
# [1] = target: αCβ2 (Oncopeltus fasciatus, UniProt A0A8S4MUF7)
# [2] = target: αCβ3 (Oncopeltus fasciatus, UniProt A0A8S4MUF7)
# [3] = target: αCβ1 (Oncopeltus fasciatus, UniProt A0A8S4MUF7)
# Sequence of αCβ1 (A0A8S4MUF7 1-1007): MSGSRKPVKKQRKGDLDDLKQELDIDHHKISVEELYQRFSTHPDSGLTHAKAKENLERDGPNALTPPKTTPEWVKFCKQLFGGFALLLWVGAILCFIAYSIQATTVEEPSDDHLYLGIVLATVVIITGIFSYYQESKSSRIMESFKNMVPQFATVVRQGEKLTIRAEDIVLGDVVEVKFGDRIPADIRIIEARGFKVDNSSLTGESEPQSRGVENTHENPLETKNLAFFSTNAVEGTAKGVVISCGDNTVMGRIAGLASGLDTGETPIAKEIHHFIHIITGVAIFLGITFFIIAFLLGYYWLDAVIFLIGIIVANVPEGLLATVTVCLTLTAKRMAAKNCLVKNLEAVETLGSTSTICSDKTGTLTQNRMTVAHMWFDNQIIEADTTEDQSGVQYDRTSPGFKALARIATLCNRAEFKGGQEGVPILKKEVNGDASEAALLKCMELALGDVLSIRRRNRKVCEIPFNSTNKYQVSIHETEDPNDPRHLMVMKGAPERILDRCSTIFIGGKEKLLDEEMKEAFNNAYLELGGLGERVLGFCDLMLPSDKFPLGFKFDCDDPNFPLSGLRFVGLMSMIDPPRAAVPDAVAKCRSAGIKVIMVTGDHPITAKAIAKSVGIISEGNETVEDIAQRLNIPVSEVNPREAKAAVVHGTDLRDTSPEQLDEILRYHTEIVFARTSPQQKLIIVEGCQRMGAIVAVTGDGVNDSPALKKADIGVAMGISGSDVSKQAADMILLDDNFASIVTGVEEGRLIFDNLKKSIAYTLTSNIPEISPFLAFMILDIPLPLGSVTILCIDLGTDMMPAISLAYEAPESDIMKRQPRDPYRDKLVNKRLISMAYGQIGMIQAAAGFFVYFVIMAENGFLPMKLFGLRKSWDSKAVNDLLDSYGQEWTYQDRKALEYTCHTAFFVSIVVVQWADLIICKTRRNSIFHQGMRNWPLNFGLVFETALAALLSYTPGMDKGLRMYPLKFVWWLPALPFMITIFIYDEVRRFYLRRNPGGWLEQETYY
# Sequence of αCβ1 (A0A8S4MTC7 1-330 partner): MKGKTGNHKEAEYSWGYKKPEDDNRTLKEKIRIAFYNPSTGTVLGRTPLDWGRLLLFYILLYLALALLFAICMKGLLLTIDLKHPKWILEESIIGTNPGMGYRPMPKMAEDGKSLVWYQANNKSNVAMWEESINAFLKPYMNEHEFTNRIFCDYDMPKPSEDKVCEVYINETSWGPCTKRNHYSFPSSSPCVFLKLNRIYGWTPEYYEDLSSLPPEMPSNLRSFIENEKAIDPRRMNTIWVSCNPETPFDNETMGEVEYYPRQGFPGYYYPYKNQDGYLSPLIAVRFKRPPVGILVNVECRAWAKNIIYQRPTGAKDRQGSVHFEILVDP
# Sequence of αCβ3 (A0A8S4MUF7 1-1007): as the sequence (A0A8S4MUF7 1-1007) above
# Sequence of αCβ3 (A0A8S4MV14 1-314 partner): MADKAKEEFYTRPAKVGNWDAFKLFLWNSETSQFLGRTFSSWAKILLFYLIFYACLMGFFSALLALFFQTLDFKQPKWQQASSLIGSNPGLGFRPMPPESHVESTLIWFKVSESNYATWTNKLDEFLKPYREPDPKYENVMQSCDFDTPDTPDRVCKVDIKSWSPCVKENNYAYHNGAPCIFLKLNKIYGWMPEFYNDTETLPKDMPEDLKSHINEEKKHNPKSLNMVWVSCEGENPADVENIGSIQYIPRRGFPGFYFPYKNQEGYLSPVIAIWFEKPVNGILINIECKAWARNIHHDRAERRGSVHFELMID
# Sequence of αCβ2 (A0A8S4MUF7 1-1007): as the sequence (A0A8S4MUF7 1-1007) above
# Sequence of αCβ2 (A0A8S4MTQ8 1-322 partner): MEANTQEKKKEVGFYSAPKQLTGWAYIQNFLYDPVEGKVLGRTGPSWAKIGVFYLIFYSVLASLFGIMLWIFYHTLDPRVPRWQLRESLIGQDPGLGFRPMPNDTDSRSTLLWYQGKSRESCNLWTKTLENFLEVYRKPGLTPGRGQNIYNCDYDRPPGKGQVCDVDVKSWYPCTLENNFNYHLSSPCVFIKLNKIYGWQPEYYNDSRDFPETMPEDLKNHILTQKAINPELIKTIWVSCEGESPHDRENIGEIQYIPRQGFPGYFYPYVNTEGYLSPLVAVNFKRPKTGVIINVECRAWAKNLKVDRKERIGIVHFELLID
smiles,measurement,setting,value
C[C@@H]1O[C@@H](O[C@H]2C[C@@H](O)[C@]3(CO)[C@H]4[C@H](O)C[C@]5(C)[C@@H](C6=CC(=O)OC6)CC[C@]5(O)[C@@H]4CC[C@]3(O)C2)[C@H](O)[C@H](O)[C@H]1O [ouabain],pIC50,[1],3.13
same,pIC50,[2],3.12
same,pIC50,[3],3.37
